The record followed here is PMC5147771, “High-Resolution Genetics Identifies the Lipid Transfer Protein Sec14p as Target for Antifungal Ergolines” (PLoS Genetics, 2016).

As a reminder, the MIC is the smallest concentration in the dilution series that meets the test's criterion for growth inhibition.

Where two headings read alike, the source gives them in different places. A value given as a limit tells only on which side of the number the result lay.

Data set [1] can be described thus: Artificial membrane permeability assay. In kind it is in vitro ADME. The following applies: PAMPA, to assess blood brain barrier penetration. Here is the method: Invasion of the central nervous system by C. neoformans is a prerequisite for fungal meningitis. We thus performed artificial membrane permeability assays in order to assess the potential of the cryptococcal active compounds to penetrate the blood brain barrier (S7 Fig). […] High permeability of ergolines is expected, as members of the ergoline class are used as psychedelic narcotics since their discovery.
Metabolic stability was determined as described previously on a fully automated platform, the artificial membrane permeability assays was performed as described previously
Supplementary file pgen.1006374.s007.eps: S7 Fig Physicochemical properties of ergolines. Rat liver microsome and artificial membrane permeability assay. NGx04 and close analogues were tested for metabolic stability (CYP MetCL) and artificial membrane permeability (logPAMPA) in duplicates. Value pairs are color coded and binning is indicated. (EPS) Click here for additional data file.
A general note: In PAMPA a lipid-coated filter parts donor from acceptor wells.

The next data set relates to C. neoformans ATCC 36556. The data set is described as follows: C. neoformans growth inhibition (CLSI M27-A3 broth microdilution). In kind it is cell-based. Conditions: for MIC: Cryptococcus neoformans, ATCC36556, 72 h. The text has this: (§1) Sec14p is reported to be essential for virulence as well as for growth in C. neoformans. The S. cerevisiae and C. neoformans proteins show 53% similarity by pair-wise alignment with higher conservation of the residues in the lipid-binding pocket (S2 Fig). Furthermore, three of the four sites identified to be critical for NGx04 sensitivity, are conserved (S2 Fig). In combination with the current high unmet medical need related to Cryptococcus infections we prioritized testing of NGx04 and 18 related ergoline scaffold analogs against this pathogen. Two clinical isolates of C. neoformans (ATCC 36556 and ATCC 90113) were plated in triplicates on increasing drug concentrations and MIC-2 (50% inhibition) and MIC-0 (no visible fungal growth) concentrations were scored after 72 hrs. (Fig 5).
(§2) C. neoformans strains ATCC 36556, a lung isolate, and ATCC 90113, a cerebrospinal fluid isolate, were purchased from ATCC, Manassas, VA (USA). BPY22 was obtained from.
(§3) Antifungal susceptibility testing was conducted according to the Clinical and Laboratory Standards Institute (CLSI) guidelines for broth microdilution assay M27-A3. Testing was performed in RPMI-1640 (HyClone) with 2.05 mM glutamine, phenol red, without bicarbonate and buffered with 0.165 mol/l 3-(N-morpholino) propanesulfonic acid (MOPS). The medium was adjusted to pH 7.0 and sterilized with a 0.2 μm filter. Two endpoints were recorded: MIC-0 (complete inhibition with no visible fungal growth) and MIC-2 (prominent inhibition corresponding to >50% growth reduction).
Background: Broth dilution looks for growth in wells or tubes with falling amounts of substance.

The test system of a further data set is C. neoformans ATCC 90113. The description is as above. The format is cell-based. The following applies: 72 h, triplicate values printed singly; for MIC: Cryptococcus neoformans, ATCC90113, 72 h.
Text: as §1, §2, §3

The subject of data set [2] is S. cerevisiae deletion strains. The data set is described as follows: Single strain growth inhibition of deletion strains (turbidity OD600). The following applies: Saccharomyces cerevisiae, 24 h. The format is cell-based.
The test system of data set [3] is 512 human cancer cell lines. The data set is described as follows: Cancer Cell Line Encyclopedia proliferation assay. The format is cell-based. The text has this:
(§4) One key requirement of antifungal medicines is selective inhibition of the pathogen over the mammalian host. To explore potential undesired activity of NGx04 against mammalian cells we used the Cancer Cell Line Encyclopedia CCLE, a collection of 512 human cancer cell lines (broadinstitute.org/ccle). Dose-response curves for NGx04 were generated in a proliferation assay and IC50 values determined. […] Since HepG2 cells are known to be a suitable tool to profile toxicity of compounds [40], we used this liver-derived line to assess cytotoxicity of NGx04. […] 16 of 21 amino acid residues within a 5 Å radius from any atom of the docked Ngx04 ligand were not conserved between the two proteins. Critical differences in the active site of the human protein are the residues F178, C128, I151 and L186 (corresponding to S201, Y151, T175 and M209 in yeast) which form a smaller and more hydrophobic pocket compared to the yeast protein (Fig 4C). […]
(§5) Fig 4 Fungal selectivity. […] A) Dose-response curves for NGx04 were generated in growth inhibition assay and IC50 values determined in duplicates. […]
(§6) Profiling across the Cancer Cell Line Encyclopedia was performed as described previously. MTS toxicity was determined using a CellTiter 96 AQueous One Solution Cell Proliferation Assay kit from Peomega.

The subject of another data set is S. cerevisiae. Briefly: High-throughput screen of compound archive against S. cerevisiae. Conditions: Saccharomyces cerevisiae; validated hit of high-throughput screen. The format is cell-based.
A further data set is described as follows: MTS cytotoxicity assay. The following applies: human, HepG2 cells, triplicates, logistic regression. The format is cell-based.
Text: as §4, §5, §6

Another data set concerns S. cerevisiae BY4741. Briefly: Phosphatidylinositol (PI) and phosphatidylcholine (PC) competition growth assay. The format is cell-based. Conditions: medium with 200 μM PI or 200 μM PC. An excerpt:
To test this hypothesis, the S. cerevisisae x-ray structure of Sec14p was used to dock the NGx04 ligand into the lipid-binding cavity (Fig 3B). In the resulting docking model, the ester moiety of the ligand formed an H-bond with Y111 while the ergoline amine formed an H-bond with T175. The ergoline moiety also made van der Waals interactions with the residues Y122, Y151, S173, M177 and F212. The calculated docking model was in agreement with the experimental data from the mutagenesis study, as three of the four identified resistance conferring mutations were directly involved in ligand interactions (Y111, Y151 and S173) and the identified V154 residue, although not directly involved in ligand interactions, was only 4.5 Å away from NGx04. The model outlines that a larger residue at this position like Isoleucine would be deleterious for ligand binding. As our docking experiment was biased towards the lipid-binding cavity we aimed at further supporting evidence for NGx04 binding in this protein pocket. To do so we tested if NGx04 would compete for phospholipid-binding in the Sec14p cavity. […]
S. cerevisiae BY4741 (Open Biosystems) was grown in YPD medium in the absence or presence of additional phosphatidylinositol or phosphatidylcholine (200 μM each, Sigma-Aldrich 79401 or P3556, respectively). OD600 values of exponentially growing yeast cultures were recorded with a robotic system. […]

Data set [4] deals with wild type yeast carrying plasmid SEC14 variants. The data set is described as follows: Growth inhibition titration of yeast re-transformed with plasmids coding for SEC14 variants. Conditions: Saccharomyces cerevisiae, 18 h.
Procedure: A plasmid containing the wild type copy of SEC14 was used as control to exclude resistance due to SEC14 gene copy-number effects.
B) The plasmids coding for various SEC14 proteins were re-transformed into a fresh wild type yeast strain and serial dilutions of the cultures spotted on either 150 μM of NGx04 or DMSO control, incubated for 3 days at 30°C and scored for growth. C) The strains were grown for 24 h in the presence of increasing concentrations of NGx04 and growth measured by turbidity (OD600). Duplicate values were determined and the 18 h time point was used for logistic regression.
The mark [5] stands for this setting: 50% inhibition, 72 h, triplicate values printed singly, read-out: ATCC36556 MIC-2.
Where [6] appears, read: no visible fungal growth, 72 h, triplicate values printed singly, read-out: ATCC36556 MIC-0.
Where [7] appears, read: 50% inhibition, read-out: ATCC90113 MIC-2.
Setting [8] is: no visible fungal growth, read-out: ATCC90113 MIC-0.

For the compound `CC(C)N1CC(C(=O)O)CC2c3cccc4c3C(CC21)CN4C(=O)OC(C)(C)C` (stereo not drawn) [NGx13], in data set [1], the artificial membrane permeability entry is given as “exception”. Besides, the “ATCC36556 MIC-2” value in the data set with C. neoformans ATCC 36556 (50% inhibition, 72 h, triplicate values printed singly) is 13 µg/mL. Further, the MIC is 25 µg/mL in the data set on C. neoformans ATCC 36556 (setting [5]), greater than 50 µg/mL in the data set with C. neoformans ATCC 36556 (setting [6]), greater than 50 µg/mL with C. neoformans ATCC 90113 (setting [7]) and greater than 50 µg/mL in the data set on C. neoformans ATCC 90113 (setting [8]). In the data set with C. neoformans ATCC 90113 (50% inhibition), the “ATCC90113 MIC-2” value amounted to 50 µg/mL.

Consider `COC(=O)C1CC2c3ccc([N+](=O)[O-])c4c3C(CC2N(C)C1)CN4C(=O)OCC(Cl)(Cl)Cl` (stereo not drawn) [NGx04], for which the IC50 was 18.9 µM in [2] (read-out: IC50, strain KES1/kes1); 6.3 µM in [2] (read-out: IC50, strain SEC14/sec14); 11.8 µM in [2] (read-out: IC50, strain ho/ho); 5.2 µM in [2] (read-out: IC50, strain itr1/itr1); 4.4 µM in data set [2] (read-out: IC50, strain spo14/spo14); 3.8 µM in [2] (read-out: IC50, strain srf1/srf1). Further, the IC50 with S. cerevisiae is less than 20 µM; in the data set “MTS cytotoxicity assay”, 158 µM; in [4] (read-out: IC50, SEC14 S173A), 318 µM; in [4] (read-out: IC50, SEC14 V154I), 225 µM; in data set [4] (read-out: IC50, SEC14 WT plasmid), 41.1 µM. Also, the cell lines sensitive result in data set [3] (share of cell lines, sensitive defined by Amax <50% and IC50 <30 μM) is “one fourth”. Besides, in [3] (share of the tested CCLE cell lines), the “cell lines not notably affected / not significantly inhibited” value amounted to 76%. For the same compound, in the data set with S. cerevisiae BY4741, the “effect of excess PI or PC on growth inhibition” value is given as “alleviate NGx04-mediated growth inhibition”. Also, the MIC in the data set on C. neoformans ATCC 36556 (setting [5]) was 25 µg/mL; with C. neoformans ATCC 36556 (setting [6]), 50 µg/mL; in the data set with C. neoformans ATCC 90113 (setting [7]) it was 25 µg/mL; in the data set on C. neoformans ATCC 90113 (setting [8]), greater than 50 µg/mL. Moreover, the “C. neoformans growth inhibition (in words)” value with C. neoformans ATCC 36556 (clinical isolates ATCC 36556 and ATCC 90113, tested dose range) is recorded as “inhibit C. neoformans growth”. The “ATCC36556 MIC-0” value in the data set on C. neoformans ATCC 36556 (no visible fungal growth, 72 h, triplicate values printed singly) was greater than 50 µg/mL.
